According to PubChem BioAssay (NCI):
“And” between values parts separate entries of the source, which are not always exact repeats. Equal entries are not always repeated.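 Five compound concentrations were applied to cells in 96-well plates for 48 hours; endpoints were derived by simple linear interpolation of the resulting dose-response curve. GI50: concentration for 50% inhibition of growth. The concentration for full growth arrest is given as TGI.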

Assays:
Assay in all cases: DTP human tumour cell line panel, 48 h
[1] = tested on: SK-MEL-28 melanoma
[2] = tested on: MDA-MB-435
[3] = tested on: UACC-62 melanoma
[4] = tested on: EKVX NSCLC
[5] = tested on: UACC-257 melanoma
[6] = tested on: OVCAR-8 ovarian
[7] = tested on: 786-0 renal
[8] = tested on: MOLT-4 leukemia
[9] = tested on: MALME-3M melanoma
[10] = tested on: TK-10 renal

Structure (SMILES) | GI50 [1] [µM] | TGI [1] [µM] | GI50 [2] | TGI [2] | GI50 [3] | TGI [3] | GI50 [4] | TGI [4] [µM] | GI50 [5] [µM] | TGI [5] | GI50 [6] | TGI [6] | GI50 [7] | TGI [7] | GI50 [8] | TGI [8] | GI50 [9] [µM] | TGI [9] | GI50 [10] [µM] | TGI [10] [µM]
CC(=O)Oc1ccc2c(c1)[C@@]1(C)CCCC(C)(C)[C@@H]1CC2 | 19.3 | 49.8 | 16.8 µM | 40 µM | 17.6 µM | 32.8 µM | 26 µM | 62.1 | 18.2 | 43.6 µM | 18.8 µM | 41.6 µM | 18.1 µM | 32.8 µM | 30.9 µM | > 100 µM |  |  |  | 
O=C(Nc1cccc(-n2cc(-c3ccncc3)c(-c3ccc(O)c(Cl)c3)n2)c1)c1ccc2c(c1)OCCO2 |  |  | > 100 µM | > 100 µM | 7.96 µM | > 100 µM |  |  | > 100 | > 100 µM | 3.67 µM | > 100 µM | 3.27 µM | > 100 µM | 4.88 µM | > 100 µM | > 100 | > 100 µM | > 100 | > 100
Cc1cc(C(=O)Nc2n[nH]c3ccccc23)n[nH]1 | > 100 | > 100 | > 100 µM | > 100 µM | > 100 µM | > 100 µM | > 100 µM | > 100 | > 100 | > 100 µM | > 100 µM | > 100 µM | > 100 µM | > 100 µM | > 100 µM | > 100 µM | > 100 | > 100 µM | > 100 | > 100
COc1cccc(-c2nn(-c3ccccc3)cc2-c2ccnc(NCCCNC(=O)c3cccc(C(F)(F)F)c3)c2)c1 | 5.45 | 25.3 | 3.27 µM | 17.1 µM | 3.58 µM | 16.2 µM | 5.01 µM | 36.2 | 4.4 | 15.8 µM | 4.67 µM | 20.1 µM | 3.75 µM | 15.1 µM | 2.63 µM | 9.35 µM | 2.66 | 8.22 µM | 7.33 | 31.2
N#Cc1cnc2cc(OC[C@@H](O)CO)c(NC(=O)C3CCCC3)cc2c1Nc1ccc(OCc2cccc(F)c2)c(Cl)c1 | 0.669 | 1.42 | 1.82 µM | 7.71 µM |  |  | 1.33 µM | 6.74 |  |  | 1.16 µM | 3.01 µM | 4.51 µM | 11.7 µM | 1.49 µM | 4.69 µM |  |  | 1.99 | 7.21
CCCOc1cc2ccccc2cc1C(=O)Nc1nc(NC)c2c(ccc3nccc32)[nH]1 | 1.14 | 2.43 | 0.0401 µM | 0.197 µM | 0.556 µM | 2.12 µM | 0.611 µM | 2.04 | 1.21 | 2.56 µM | 0.89 µM | 2.3 µM | 0.613 µM | 2.07 µM | 0.496 µM | 2.32 µM | 1.15 | 2.54 µM | 1.36 | 2.68
C[C@]12CC[C@@H]3c4ccc(O)cc4CC[C@H]3[C@@H]1CC[C@@H]2NS(=O)(=O)c1ccc(Br)cc1 | 2.19 | 5.09 | 1.84 µM | 3.97 µM | 1.76 µM | 3.68 µM |  |  | 2.56 | 8.12 µM | 3.14 µM | 11.3 µM | 3.07 µM | 8.86 µM | 3.26 µM | 28.7 µM | 1.93 | 4.36 µM | 3.84 | 12.2
O=C(O)c1cc2ccccc2c2c3c(ccc12)OCO3 | 167 | 491 | 172 µM | 519 µM | 116 µM | 279 µM |  |  | 220 | 600 µM | 186 µM | 717 µM | 273 µM | 936 µM | 192 µM | 513 µM | 140 | 361 µM | 231 | 616
NCCCOc1cc2ccccc2cc1C(=O)Nc1ccc(Cl)cc1OC(=O)c1cc2ccccc2cc1OCCCN | 0.382 | 0.949 | 0.961 µM | 3.96 µM | 1.44 µM | 2.85 µM |  |  | 1.01 | 2.32 µM |  |  | 0.172 µM | 0.327 µM | 0.468 µM | 3.66 µM |  |  | 0.545 | 1.07
Nc1nonc1-c1nc2ccccc2n1Cc1ccc(F)cc1 | 7.89 | > 100 | 1.87 µM | 5.89 µM | 4.63 µM | > 100 µM |  |  | > 100 | > 100 µM | > 100 µM | > 100 µM | 29.1 µM | > 100 µM | 5.5 µM | > 100 µM | 5.09 | > 100 µM | 6.78 | > 100
O=[N+]([O-])c1cccc(-c2nc(-c3ccc(Cl)cc3Cl)cn2-c2ccccc2)c1 | 6.76 | 24.2 | 0.763 µM | 2.71 µM | 6.73 µM | > 33.3 µM | 0.56 µM | 2.5 | 1.41 | 10.7 µM | 0.947 µM | 2.64 µM | 0.995 µM | 2.88 µM | 3.21 µM | > 33.3 µM | 0.704 | 2.11 µM | 0.612 | 1.13
COc1cc(Cl)cc(-c2nn(-c3cccc(NC(=O)Nc4cccc(C(F)(F)F)c4)c3)cc2-c2ccncc2)c1 | 2.53 | 12.1 | 1.74 µM | 3.82 µM | 1.47 µM | 3.84 µM |  |  | 1.75 | 4.65 µM | 1.12 µM | 4.88 µM | 1.94 µM | 6.78 µM | 1.14 µM | 4.35 µM | 1.79 | 5.91 µM |  | 
CNCC/C=C1\c2cc3c(cc2-c2c1c1cc(OC)c(OC)cc1c(=O)n2C)OCO3 | 11.8 | > 69.4 | 0.836 µM | 15 µM | 0.344 µM | 2.3 µM | 2.36 µM | 18.3 | 3.13 | 12.4 µM | 0.248 µM | 6.55 µM | 0.587 µM | 33 µM | < 0.01 µM |  | 0.419 | 4.59 µM | 0.941 | 8.56
COc1cc(-n2cc(-c3ccccc3)[nH]c2=O)cc(OC)c1OC | 31.4 | > 100 | 76.3 µM | > 100 µM | 36.9 µM | > 100 µM | 25.4 µM | > 100 |  |  |  |  | 23.7 µM | 91.1 µM | > 100 µM | > 100 µM | 33.7 | > 100 µM | 39.6 | > 100
C=C1C(=O)OC2C1C(OC(=O)/C(C)=C/C)CC(O)(CCl)C1C(O)C=C(C)C21O (centres undefined) |  | 35 |  | > 62.1 µM |  | 25.5 µM |  | 29.9 |  | 25.6 µM |  | 37.2 µM |  | 18.4 µM |  | 20.6 µM |  | 8.9 µM |  | 27.6
O=C1/C=C/[C@@H](O)[C@@H]2C[C@@H](O)C[C@H]2/C=C/CCC[C@H](CCc2ccc3ncccc3c2)O1 | 0.0637 | 0.837 | 0.318 µM | 13.3 µM | 0.303 µM | 8.44 µM | 0.289 µM | > 64.9 | 0.13 | 5.95 µM | 0.275 µM | > 47 µM | 0.218 µM | 0.504 µM | 0.289 µM | 1.54 µM | 0.208 | 0.678 µM | 0.265 | 0.821
O=C1Nc2cc(-c3cccc(O)c3)ccc2/C1=C/c1ccc[nH]1 | 1.73 | 3.59 | 0.391 µM | 1.66 µM | 2.63 µM | 8.89 µM | 0.121 µM | 17 | 2.81 | 8.53 µM | 3.45 µM | 49.2 µM | 2.22 µM | 7.32 µM | 1.07 µM | 33.6 µM | 1.34 | 3.71 µM | 0.833 | 9.19
CCCCCCCCCCCCCCCCCCNCc1ccc(Cl)cc1 | 13.8 | 28.8 | 3.45 µM | 15.6 µM | 4.02 µM | 15.5 µM | 3.84 µM | 18.7 | 18.6 | 36 µM | 4.08 µM | 16.6 µM | 8.61 µM | 25.1 µM | 1.99 µM | 4.55 µM | 7.37 | 22.6 µM | 2.3 | 9.03
Nc1ccccc1C#C/C=C\C#CC#C/C=C\C#Cc1ccccc1N | 14.6 | 36.7 | 2.85 µM | 9.72 µM | 2.18 µM | 13.1 µM | 7.84 µM | 28.4 | 8.96 | 32.4 µM | 4.8 µM | 29.5 µM | 9.76 µM | 24.6 µM | 1.01 µM | 18.4 µM | 11.7 | 67.1 µM | 15.3 | > 100
C/C=C/C/C=C/[C@H](C)C[C@H](O)[C@@H]1C[C@@H]2O[C@H]2/C=C/[C@@H]2OC(C)(C)O[C@H]2/C=C/C[C@H](C)CC(=O)O1 | 47.8 | > 100 | 24 µM | > 100 µM | 4.31 µM | 20.2 µM | 21 µM | > 100 | 56.7 | > 100 µM | 3.7 µM | > 100 µM | 69.7 µM | > 100 µM | 3.94 µM | 37.4 µM |  |  | 51.8 | > 100
C=C1c2ccccc2C(=O)c2c1c1c(C(=O)OC)c(OC(=O)OCc3ccc([N+](=O)[O-])cc3)ccc1n2Cc1ccccc1 |  |  | 23.5 µM | > 100 µM | 10.5 µM | 22.6 µM | 33.6 µM | > 100 | 29.8 | > 100 µM | 2.51 µM | > 100 µM | 7.17 µM | 26 µM | 2.6 µM | 11.6 µM | 36 | > 100 µM | 21.1 | > 100
N#CC1=C(N)NC(=S)NC1c1ccc(-c2ccc(-c3nc4ccccc4o3)cc2)s1 (centres undefined) |  |  | 16.5 µM | 48.5 µM | 9.2 µM | 21.3 µM | 14 µM | 48.2 | 11.2 | 26.8 µM | 10.1 µM | 22.4 µM | 11.1 µM | 22.4 µM |  |  |  |  | 18.6 | > 50
CCC1C(C)C=NN1c1nc(N)nc(C(C#N)=Nc2ccc(N(C)C)cc2)n1 (centres undefined) | 8.61 | 18.4 | 16.7 µM | > 50 µM | 14.6 µM | > 50 µM | 11.3 µM | 32.2 | > 50 | > 50 µM | 10.6 µM | 31 µM | 17.4 µM | > 50 µM | 21.6 µM | > 50 µM |  |  | 10.6 | 18.9
CO[C@@H]1CCN(c2nccc(Nc3cc4c(C(C)C)ccc(N5CC(CS(C)(=O)=O)[C@H]5C)c4cn3)n2)C[C@@H]1F (some centres undefined) | 5.52 | > 100 | 4.96 µM | 83.9 µM |  |  | 1.21 µM | > 100 | 4.91 | 41.1 µM | 2.83 µM | > 100 µM | 7.18 µM | > 100 µM | 2.98 µM | > 100 µM | 3.76 | 15.6 µM | 0.843 | 19.9
[N-]=[N+]=NCCCn1c2c(c3ccc([N+](=O)[O-])cc3c1=O)C(=O)c1cc3c(cc1-2)OCO3 | 14.4 | > 100 | < 0.042 µM | 1.49 µM | < 0.0211 µM | 0.782 µM | 0.379 µM | 3.62 | 0.495 | 15.2 µM | < 0.0446 µM | 16.6 µM | < 0.0141 µM | < 0.025 µM | < 0.0374 µM |  |  |  | 2.26 | 19.9
CN1CCN(c2ccc(OC(F)(F)F)c(Nc3ncc4c(n3)-c3c(c(C(N)=O)nn3CCO)CC4)c2)CC1 | 0.738 | > 10 | 0.0165 µM and 0.0188 µM | 0.0542 µM and 0.0634 µM | 0.0454 µM and 0.123 µM | 21.1 µM and > 4.66 µM | 0.0907 µM and 0.169 µM | > 88.2 |  | 28.6 µM and > 6.61 µM | 0.0506 µM and 0.0624 µM | 61.5 µM and > 4.59 µM | 0.428 µM and 0.466 µM | 32.4 µM and > 10 µM | 0.0349 µM and 0.0615 µM | 18.5 µM and > 10 µM |  | 29.8 µM and > 10 µM |  | 
